Results on three compounds are retold here after patent US11447503B2, “Pyridine carbamates and their use as GLUN2B receptor modulators” (JANSSEN PHARMACEUTICA NV, priority 2019, dated 2022).

For orientation: IC50 means the concentration needed to halve the response being measured.

In data set [1] the target is human GluN1/GluN2B NMDA receptors (Homo sapiens, UniProt Q05586+Q13224). In words: Cell-based calcium flux (FLIPR) assay on cloned human GluN1/GluN2B ion channels expressed in mammalian cells. As to conditions: standard assay; glutamate ~EC40, 10 μM glycine; stable Tet-On cell line. Put shortly: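 Tet-On-induced stable cells expressing human GluN1/GluN2B, Calcium 5 dye. Compounds preincubated 5 min (agonist check), then glutamate at ~EC40 plus 10 μM glycine added for 5 min; Mg2+ and buffer composition differ between standard and HTS formats. FLIPR Tetra fluorescence normalised to control wells; (+)MK-801 as antagonist control.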
On the technique in general: Calcium assays in cells follow changes in intracellular calcium, usually with a dye or a luminescent sensor.

Data set [2] can be described thus: Liver microsomal stability assay (extraction ratio). The class given is in vitro ADME. The settings on record: test compound 1 μM; 0.5 mg/mL liver microsomes, NADPH, 37° C.; species not stated (method: mouse, rat, and human). The procedure: 5.4. Liver Microsomal Stability Assay (Extraction Ratio)
Microsomal stability studies (see, Chrovian et al, “H-Pyrrolo[3,2-b]pyridine GluN2B-Selective Negative Allosteric Modulators”. ACS Med Chem Lett. 2019 Jan. 10; 10(3):261-266) were conducted on a Biomek® FX Robotic Liquid Handling Workstation (Beckman Coulter, Brea, Calif.), which consists of a 96-channel pipette head, a 12-position workstation deck, and a plate incubator. Test compounds (1 μM) were spiked in a reaction mix consisting of 100 mM potassium phosphate buffer (pH 7.4), 3 mM MgCl2, and 0.5 mg/mL liver microsomes from mouse, rat, and human (BD Gentest). The reaction was brought to 37° C. and initiated by adding NADPH to a final concentration of 1 mM. After mixing on the platedeck, 50 μL aliquots were excised from the reaction plate at 0, 5, 10, 20, 40, and 60 min and quenched with four volumes of acetonitrile spiked with […] of the internal standard phenytoin. Quenched plates were centrifuged at 5700 rpm for 10 min at 4° C., and supernatant was diluted 1:3 in water before LC/MS/MS analysis. The compound half-lives were derived from plots of the In of percent remaining compound over time to determine the intrinsic clearance. The predicted hepatic clearance was derived from the intrinsic clearance value using equations from the well-stirred model (Current Drug Metabolism, 2008, 9, 940-951), where no correction was made plasma protein binding and the blood to plasma concentration ratio was assumed to be one. The extraction ratio (ER) was calculated by dividing the predicted hepatic clearance by species blood flow (Q), where Q is 90, 55, and 21.7 mL/min/kg for mouse, rat and human, respectively.
Background: Liver microsomes are a subcellular fraction often used to study metabolism.

human GluN1/GluN2B NMDA receptors, sequence (Q13224 27-1484, other chains not shown): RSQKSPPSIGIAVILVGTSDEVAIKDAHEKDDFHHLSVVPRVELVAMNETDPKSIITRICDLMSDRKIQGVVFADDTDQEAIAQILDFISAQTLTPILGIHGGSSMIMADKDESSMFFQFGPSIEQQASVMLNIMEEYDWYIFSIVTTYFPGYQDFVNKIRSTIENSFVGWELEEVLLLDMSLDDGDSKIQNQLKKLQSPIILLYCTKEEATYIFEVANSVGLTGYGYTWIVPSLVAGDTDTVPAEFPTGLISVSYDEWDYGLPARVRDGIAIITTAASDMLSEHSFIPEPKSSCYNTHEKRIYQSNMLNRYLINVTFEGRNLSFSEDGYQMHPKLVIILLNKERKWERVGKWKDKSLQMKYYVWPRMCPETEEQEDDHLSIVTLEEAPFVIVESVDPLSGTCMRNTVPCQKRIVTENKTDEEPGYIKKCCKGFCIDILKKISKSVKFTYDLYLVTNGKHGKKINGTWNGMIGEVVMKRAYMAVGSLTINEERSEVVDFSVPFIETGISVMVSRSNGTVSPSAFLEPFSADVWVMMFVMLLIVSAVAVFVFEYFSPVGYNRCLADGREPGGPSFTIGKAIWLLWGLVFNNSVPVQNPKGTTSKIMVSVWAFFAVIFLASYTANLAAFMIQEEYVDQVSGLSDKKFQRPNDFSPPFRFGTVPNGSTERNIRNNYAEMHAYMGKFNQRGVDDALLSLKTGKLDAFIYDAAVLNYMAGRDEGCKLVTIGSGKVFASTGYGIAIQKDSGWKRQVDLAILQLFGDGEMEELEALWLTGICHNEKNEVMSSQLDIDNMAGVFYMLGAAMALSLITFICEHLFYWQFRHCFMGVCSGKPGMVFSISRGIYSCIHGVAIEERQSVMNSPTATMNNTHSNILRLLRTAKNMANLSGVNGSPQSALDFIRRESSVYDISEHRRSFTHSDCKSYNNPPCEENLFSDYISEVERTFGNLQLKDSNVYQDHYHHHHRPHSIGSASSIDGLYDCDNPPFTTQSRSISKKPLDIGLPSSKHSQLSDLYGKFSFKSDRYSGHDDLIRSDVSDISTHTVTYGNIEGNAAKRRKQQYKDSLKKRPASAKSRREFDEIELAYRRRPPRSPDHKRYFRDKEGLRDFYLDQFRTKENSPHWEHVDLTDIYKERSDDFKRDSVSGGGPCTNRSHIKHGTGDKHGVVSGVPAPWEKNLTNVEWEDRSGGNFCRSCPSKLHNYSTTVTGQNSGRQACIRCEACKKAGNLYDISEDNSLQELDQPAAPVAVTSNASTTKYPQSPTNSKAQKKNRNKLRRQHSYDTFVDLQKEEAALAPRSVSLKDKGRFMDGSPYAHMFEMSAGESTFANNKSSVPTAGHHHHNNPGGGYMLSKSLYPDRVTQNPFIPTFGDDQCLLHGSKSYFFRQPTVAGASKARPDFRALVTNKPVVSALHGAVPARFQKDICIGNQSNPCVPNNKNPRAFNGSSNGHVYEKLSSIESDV

With `[2H]C([2H])(c1cncc(-c2ccc(F)c(C(F)F)c2)c1)N1CCOC1=O` [Example 54, 3-[Dideuterio-[5-[3-(difluoromethyl)-4-fluoro-phenyl]-3-pyridyl]methyl]oxazolidin-2-one], in data set [1], the IC50 worked out at 13 nM. Moreover, in data set [2], the “Extraction Ratio @ 1 μM” value turned out to be 0.61.

With `Cc1ncc(-c2ccc(F)c(C(F)F)c2)cc1CN1CCOC1=O` [Example 90, 3-[[5-[3-(Difluoromethyl)-4-fluoro-phenyl]-2-methyl-3-pyridyl]methyl] oxazolidin-2-one], in data set [1], the IC50 was determined as 13 nM. In data set [2], the “Extraction Ratio @ 1 μM” value was found to be 0.60.

On to `Cc1ncc(-c2ccc(F)c(C(F)F)c2)cc1CN1CCCOC1=O` [Example 97, 3-[[5-[3-(Difluoromethyl)-4-fluoro-phenyl]-2-methyl-3-pyridyl]methyl]-1,3-oxazinan-2-one], for which the IC50 in data set [1] turned out to be 27 nM. Further, the “Extraction Ratio @ 1 μM” value in data set [2] came out at 0.55.
